Like-named read-outs stand apart in the source and are kept apart here.
Key:
[1] = test system: Phytophthora infestans; assay: microbe, parasite or virus in culture; assay type: cell-based
[2] = test system: Botrytis cinerea; assay: Activity against the gray mold pathogen Botrytis cinerea in the microtiter test (Botrci); assay type: cell-based; conditions: for inhibition of growth at 0.016 ppm / inhibition of growth at 0.063 ppm / inhibition of growth at 1 ppm / inhibition of growth at 4 ppm / inhibition of growth at 16 ppm / inhibition of growth at […]: Botrytis cinerea, 168 h, read-out: Observed activity; for inhibition of growth at 0.016 ppm: conc 0.016 ppm; for inhibition of growth at […]: conc 0.25 ppm
[3] = test system: Pyricularia oryzae; assay: microbe, parasite or virus in culture; assay type: cell-based; conditions: for Observed activity: Pyrior, single active compound
[4] = test system: Septoria tritici; assay: Activity against the Septoria leaf spot pathogen Septoria tritici in the microtiter test (Septtr); assay type: cell-based; conditions: single active compound; for inhibition of growth at 0.004 ppm: conc 0.004 ppm; for inhibition of growth at 0.016 ppm: conc 0.016 ppm; for inhibition of growth at 0.063 ppm: conc 0.063 ppm
[5] = test system: Fusarium culmorum; assay: Activity against Fusarium culmorum in the microtiter test (Fusacu); assay type: cell-based; conditions: single active compound; for inhibition of growth at […] / inhibition of growth at 4 ppm / inhibition of growth at 16 ppm / inhibition of growth at 1 ppm / inhibition of growth at 0.063 ppm: Fusarium culmorum, 168 h, read-out: Observed activity; for inhibition of growth at […]: 0.25 ppm
[6] = Zymoseptoria tritici, 168 h, read-out: Observed activity
[7] = Zymoseptoria tritici, 168 h, conc 1 ppm, read-out: Observed activity
[8] = Pyricularia oryzae, 168 h, read-out: Observed activity
[9] = Zymoseptoria tritici, 168 h, conc 0.25 ppm, read-out: Observed activity
[10] = Phytophthora infestans, 168 h, read-out: Observed activity

1-(4-chlorophenyl)-3-(5-mercapto-[1,2,4]triazol-1-ylmethyl)-4,4-dimethylpentan-3-ol [I-9]
Observed activity ([1]; conc 16 ppm): 52%
Observed activity ([2]; conc 4 ppm): 23%
Observed activity ([3]; conc 16 ppm): 57
Observed activity ([4]; conc 1 ppm): 20
Observed activity ([4]; conc 4 ppm): 64
Observed activity ([5]; 16 ppm): 4%

Fc1ccc([C@]2(Cn3cncn3)O[C@H]2c2ccccc2Cl)cc1 (racemic) [epoxiconazole]
inhibition of growth at 0.016 ppm [2]: 7%
inhibition of growth at 0.063 ppm ([2]; conc 0.063 ppm): 25%
inhibition of growth at 0.004 ppm [4, 6]: 4%
inhibition of growth at 0.016 ppm [4, 6]: 47%
inhibition of growth at […] [5]: 0%

CCCCCCCCc1c(CC)nc2ncnn2c1N [5-ethyl-6-octyl-[1,2,4]triazolo-[1,5-a]pyrimidin-7-ylamine]
inhibition of growth at 4 ppm ([5]; 4 ppm): 2%

CCCCCCCCc1c(CC)nc2ncnn2c1N [5-ethyl-6-octyl-[1,2,4]triazolo[1,5-a]pyrimidin-7-ylamine]
inhibition of growth at 1 ppm ([2]; conc 1 ppm): 6%
inhibition of growth at 1 ppm [4, 7]: 0%

CC1(C)CCC(Cc2ccc(Cl)cc2)C1(O)Cn1ncnc1S (stereo not drawn) [I-4, 5-(4-chlorobenzyl)-1-(5-mercapto-[1,2,4]triazol-1-ylmethyl)-2,2-dimethylcyclopentanol]
inhibition of growth at 1 ppm ([2]; conc 1 ppm): 28%
inhibition of growth at 4 ppm [3, 8]: 3%
inhibition of growth at […] [4, 9]: 63%
inhibition of growth at 1 ppm [4, 7]: 68%
inhibition of growth at 16 ppm ([5]; 16 ppm): 3%
melting point: 186 to 196 °C

CC1COC(Cn2ncnc2S)(c2ccc(Oc3ccc(Cl)cc3)cc2Cl)O1 (stereo not drawn) [I-5, 2-{2-[2-chloro-4-(4-chlorophenoxy)phenyl]-4-methyl-[1,3]dioxolan-2-ylmethyl}-2H-[1,2,4]triazole-3-thiol]
inhibition of growth at 1 ppm [1, 10]: 8%
inhibition of growth at 4 ppm ([2]; conc 4 ppm): 36%
melting point: 73.4 °C

CCCCC(C#N)(Cn1ncnc1S)c1ccc(Cl)cc1 (stereo not drawn) [I-10, 2-(4-chlorophenyl)-2-(5-mercapto-[1,2,4]triazol-1-ylmethyl)hexanenitrile]
inhibition of growth at 4 ppm [1, 10]: 2%
inhibition of growth at 16 ppm [3, 8]: 8%
inhibition of growth at 1 ppm [4, 7]: 2%

CCCC(Cn1ncnc1S)c1ccc(Cl)cc1Cl (stereo not drawn) [I-16, 2-[2-(2,4-dichlorophenyl)pentyl]-2H-[1,2,4]triazole-3-thiol]
inhibition of growth at 16 ppm [1, 10]: 47%
inhibition of growth at 4 ppm ([2]; conc 4 ppm): 31%
inhibition of growth at 1 ppm [3, 8]: 1%
inhibition of growth at 16 ppm ([5]; 16 ppm): 6%

CCCC1COC(Cn2ncnc2S)(c2ccc(Cl)cc2Cl)O1 (stereo not drawn) [I-17, 2-[2-(2,4-dichlorophenyl)-4-propyl-[1,3]dioxolan-2-ylmethyl]-2H-[1,2,4]triazole-3-thiol]
inhibition of growth at 4 ppm ([2]; conc 4 ppm): 33%
inhibition of growth at […] [4, 9]: 38%
inhibition of growth at 16 ppm ([5]; 16 ppm): 7%

CC1(C)CC/C(=C\c2ccc(Cl)cc2)C1(O)Cn1ncnc1S (stereo not drawn) [I-22, 5-[1-(4-chlorophenyl)meth-(E)-ylidene]-1-(5-mercapto-[1,2,4]triazol-1-ylmethyl)-2,2-dimethylcyclopentanol]
inhibition of growth at 1 ppm [1, 10]: 6%
inhibition of growth at 16 ppm ([2]; conc 16 ppm): 8%
inhibition of growth at 16 ppm ([4]; Zymoseptoria tritici, 168 h, conc 16 ppm, read-out: Observed activity): 22%
melting point: 176.5 °C

CC(C1CC1)C(O)(Cn1ncnc1S)c1ccc(Cl)cc1 (stereo not drawn) [I-23]
Observed activity ([2]; conc 16 ppm): 26%
Observed activity ([4]; conc 1 ppm): 7
Observed activity ([4]; conc 4 ppm): 9

O=C(Nc1ccccc1-c1ccc(Cl)cc1)c1cccnc1Cl [II-24, boscalid]
inhibition of growth at 4 ppm [3, 8]: 0%
inhibition of growth at […] [4, 9]: 59%
inhibition of growth at 4 ppm ([5]; 4 ppm): 0%

Cn1cc(C(=O)Nc2ccccc2-c2cc(F)c(F)c(F)c2)c(C(F)F)n1 [N-(3′,4′,5′-trifluorobiphenyl-2-yl)-3-difluoromethyl-1-methyl-1H-pyrazole-4-carboxamide]
inhibition of growth at 0.016 ppm [2]: 9%
inhibition of growth at 0.004 ppm [4, 6]: 4%

N#Cc1c(Cl)c(Cl)c(Cl)c(C#N)c1Cl [chlorothalonil]
inhibition of growth at 0.016 ppm [2]: 2%
inhibition of growth at 0.016 ppm [3, 8]: 0%
inhibition of growth at 0.016 ppm [4, 6]: 8%

CC1CN(C2CCCCCCCCCCC2)CC(C)O1 (stereo not drawn) [dodemorph]
inhibition of growth at […] [2]: 7%
inhibition of growth at 1 ppm ([2]; conc 1 ppm): 9%
inhibition of growth at 4 ppm ([2]; conc 4 ppm): 33%
inhibition of growth at 4 ppm [3, 8]: 1%
inhibition of growth at 0.063 ppm [4, 6]: 0%
inhibition of growth at […] [4, 9]: 0%
inhibition of growth at 4 ppm ([4]; Zymoseptoria tritici, 168 h, conc 4 ppm, read-out: Observed activity): 23%

CC(Cc1ccc(C(C)(C)C)cc1)CN1C[C@@H](C)O[C@@H](C)C1 (stereo partly drawn) [fenpropimorph]
inhibition of growth at 0.063 ppm [1, 10]: 4%
inhibition of growth at 0.063 ppm ([2]; conc 0.063 ppm): 16%
inhibition of growth at […] [2]: 26%
inhibition of growth at 1 ppm [3, 8]: 14%
inhibition of growth at 0.063 ppm [4, 6]: 3%
inhibition of growth at […] [4, 9]: 2%
inhibition of growth at 1 ppm [5]: 9%

O=C(NCCc1ncc(C(F)(F)F)cc1Cl)c1ccccc1C(F)(F)F [fluopyram]
inhibition of growth at 0.016 ppm [2]: 0%
inhibition of growth at 0.063 ppm ([2]; conc 0.063 ppm): 0%
inhibition of growth at […] [5]: 0%

O=c1c2cc(F)ccc2nc(-n2cncn2)n1-c1ccc(Cl)cc1Cl [fluquinconazole]
inhibition of growth at 4 ppm ([5]; 4 ppm): 0%

OC(Cn1cncn1)(c1ccc(F)cc1)c1ccccc1F (stereo not drawn) [flutriafol]
inhibition of growth at 4 ppm ([2]; conc 4 ppm): 14%
inhibition of growth at 16 ppm ([2]; conc 16 ppm): 42%
inhibition of growth at […] [4, 9]: 3%
inhibition of growth at 16 ppm ([5]; 16 ppm): 29%

CC(C)NC(=O)N1CC(=O)N(c2cc(Cl)cc(Cl)c2)C1=O [iprodione]
inhibition of growth at 1 ppm [3, 8]: 24%
inhibition of growth at 0.063 ppm [4, 6]: 11%
inhibition of growth at 1 ppm [5]: 3%

CO/N=C(/C(=O)OC)c1ccccc1COc1ccccc1C [kresoxim-methyl]
inhibition of growth at 1 ppm [1, 10]: 47%
inhibition of growth at […] [2]: 3%
inhibition of growth at 1 ppm ([2]; conc 1 ppm): 17%

COCC(=O)N(c1c(C)cccc1C)C(C)C(=O)OC (stereo not drawn) [metalaxyl]
inhibition of growth at 1 ppm [1, 10]: 5%
inhibition of growth at […] [2]: 1%
inhibition of growth at 1 ppm ([2]; conc 1 ppm): 5%
inhibition of growth at 1 ppm [3, 8]: 2%
inhibition of growth at 0.016 ppm [4, 6]: 0%
inhibition of growth at […] [4, 9]: 0%

CC1(C)CCC(Cc2ccc(Cl)cc2)C1(O)Cn1cncn1 (stereo not drawn) [metconazole]
inhibition of growth at 0.063 ppm ([2]; conc 0.063 ppm): 31%
inhibition of growth at 0.004 ppm [4, 6]: 0%
inhibition of growth at 0.016 ppm [4, 6]: 23%
inhibition of growth at 0.063 ppm [5]: 0%
inhibition of growth at […] [5]: 37%

COc1cc(C)c(C(=O)c2c(OC)ccc(Br)c2C)c(OC)c1OC [metrafenone]
inhibition of growth at 1 ppm ([2]; conc 1 ppm): 0%
inhibition of growth at 1 ppm [3, 8]: 11%

CNC(=O)/C(=N/OC)c1ccccc1CO/N=C(C)/C(=N/OC)C(/C)=N/OC [orysastrobin]
Observed activity ([2]; conc 0.063 ppm): 1%

OC(Cc1ccccc1Cl)(Cn1nc[nH]c1=S)C1(Cl)CC1 (stereo not drawn) [prothioconazole]
inhibition of growth at 0.016 ppm [2]: 5%
inhibition of growth at 0.063 ppm ([2]; conc 0.063 ppm): 17%
inhibition of growth at 0.004 ppm [4, 6]: 0%
inhibition of growth at […] [5]: 0%

COC(=O)N(OC)c1ccccc1COc1ccn(-c2ccc(Cl)cc2)n1 [pyraclostrobin]
inhibition of growth at 0.016 ppm [1, 10]: 13%
inhibition of growth at 0.063 ppm [1, 10]: 26%
inhibition of growth at 0.004 ppm [3, 8]: 25%
inhibition of growth at 0.016 ppm [3, 8]: 54%
inhibition of growth at […] ([4]; Zymoseptoria tritici, 168 h, conc 0.00025 ppm, read-out: Observed activity): 5%
inhibition of growth at 0.004 ppm [4, 6]: 44%
inhibition of growth at 0.016 ppm [4, 6]: 75%
inhibition of growth at 0.063 ppm [5]: 0%

Cc1cc(C)nc(Nc2ccccc2)n1 [pyrimethanil]
inhibition of growth at 0.063 ppm ([2]; conc 0.063 ppm): 7%
inhibition of growth at 1 ppm [4, 7]: 0%
inhibition of growth at 4 ppm ([5]; 4 ppm): 3%

CC(C)(C)C(O)(CCc1ccc(Cl)cc1)Cn1cncn1 (stereo not drawn) [tebuconazole]
inhibition of growth at 0.063 ppm [1, 10]: 3%
inhibition of growth at 0.004 ppm [3, 8]: 4%

COC(=O)NC(=S)Nc1ccccc1NC(=S)NC(=O)OC [thiophanate-methyl, thiophanate methyl]
inhibition of growth at 1 ppm [1, 10]: 7%
inhibition of growth at 1 ppm [3, 8]: 4%

CC1(C)CCC(=Cc2ccc(Cl)cc2)C1(O)Cn1cncn1 (stereo not drawn) [triticonazole]
inhibition of growth at […] [2]: 29%
inhibition of growth at 0.063 ppm [4, 6]: 13%
inhibition of growth at 1 ppm [5]: 17%

mancozeb
Observed activity ([1]; conc 1 ppm): 23%
Observed activity ([2]; conc 1 ppm): 8%
Observed activity ([3]; conc 4 ppm): 67
Observed activity ([4]; conc 4 ppm): 23
Observed activity ([5]; 4 ppm): 0%

metiram
Observed activity ([3]; conc 1 ppm): 6
Observed activity ([3]; conc 16 ppm): 36
Observed activity ([4]; conc 1 ppm): 17

Source: patent publication US20120088665A1, “FUNGICIDAL MIXTURES” (BASF SE, priority 2009, published 2012)
